Results from patent US10165776B2, “Substituted pyrazolylpyrazole derivative and use of same as herbicide” (KYOYU AGRI CO., LTD., priority 2015, dated 2019).

What was measured:
Format in all cases: in vivo
Chenopodium album [1] = test: Weed foliar treatment test (Test 3, 1.0 to 2.0 leaf stage); conditions: foliar spray at 1.0 to 2.0 leaf stage of Digitaria ciliaris, 3 weeks at 25° C.
Description: (§1) Soil was filled into a 1/6000 are pot followed by seeding with Digitaria ciliaris, Chenopodium album and Amaranthus retroflexus, covering with soil, and cultivating in a glass greenhouse at an average atmospheric temperature of 25° C. Wettable powders of Target Compound (I) shown in Table 1 prepared in compliance with the preparation examples were diluted with water to the prescribed amount of chemical and uniformly sprayed onto the weeds using 150 liters of sprayed water per 10 are when Digitaria ciliaris had grown to the 1.0 to 2.0 leaf stage. After treating for 3 weeks in a glass greenhouse at an average atmospheric temperature of 25° C., the herbicidal efficacy thereof was investigated. Evaluation of herbicidal efficacy was carried out in the same manner as the above-mentioned Test Example 1.

Amaranthus retroflexus [2] = test: as above; conditions: foliar spray at 1.0 to 2.0 leaf stage of Digitaria ciliaris, 3 weeks at 25° C.
Description: as §1

Digitaria ciliaris [3] = test: as above; conditions: foliar spray at 1.0 to 2.0 leaf stage of Digitaria ciliaris, 3 weeks at 25° C.
Description: as §1

Chenopodium album [4] = test: Farming soil treatment test; conditions: soil surface spray prior to weed growth, 30 days at 30° C.
Description: (§2) Field soil was filled into a 1/6000 are pot followed by seeding with Digitaria ciliaris, Chenopodium album and Amaranthus retroflexus and covering with soil. Wettable powders of compounds of formula (I) shown in Table 1 prepared in compliance with the preparation examples were diluted with water to the prescribed amount of chemical and uniformly sprayed onto each soil surface layer using 100 liters of sprayed water per 10 are prior to weed growth following seeding. After treating for 30 days in a glass greenhouse at an average atmospheric temperature of 30° C., the herbicidal efficacy thereof was investigated. Evaluation of herbicidal efficacy was carried out in the same manner as the above-mentioned Test Example 1.

Amaranthus retroflexus [5] = test: Farming soil treatment test; conditions: soil surface spray prior to weed growth, 30 days at 30° C.
Description: as §2

Digitaria ciliaris [6] = test: Farming soil treatment test; conditions: soil surface spray prior to weed growth, 30 days at 30° C.
Description: as §2

Monochoria vaginalis = test: Paddy herbicidal activity test; conditions: irrigated pot, treated at 3.5 leaf stage of Echinochloa crus-galli, 30 days at 30° C.
Description: (§3) Rice paddy soil was filled into a 1/10000 are pot followed by the addition of suitable amounts of water and chemical fertilizer, kneading, seeding with Echinochloa crus-galli, Monochoria vaginalis and Scirpus juncoides and maintaining in an irrigated state at a water depth of 3 cm. Wettable powders of Target Compound (I) shown in Table 1 prepared in compliance with the preparation examples were diluted with a suitable amount of water, rice plants in the 2.0 leaf stage were transplanted during 3.5 leaf stage of Echinochloa crus-galli, and treated by dropping in chemical in the prescribed amount per 10 are using a pipette. After treating for 30 days in a glass greenhouse at an average atmospheric temperature of 30° C., the herbicidal efficacy thereof was investigated. Evaluation of herbicidal efficacy was carried out by comparing growth inhibition rate (%) with an untreated group, while evaluation of phytotoxicity was carried out by comparing growth inhibition rate (%) with the state of a complete eradication group, and were evaluated at 11 levels indicated below.

Scirpus juncoides = test: Paddy herbicidal activity test; conditions: irrigated pot, treated at 3.5 leaf stage of Echinochloa crus-galli, 30 days at 30° C.
Description: as §3

Echinochloa crus-galli = test: Paddy herbicidal activity test; conditions: irrigated pot, treated at 3.5 leaf stage of Echinochloa crus-galli, 30 days at 30° C.
Description: as §3

Oryza sativa = test: Paddy herbicidal activity test, phytotoxicity to transplanted rice; conditions: rice transplanted at 2.0 leaf stage, 30 days at 30° C.
Description: as §3

Digitaria ciliaris [7] = test: Weed foliar treatment test (Test 4, 4.0 to 5.0 leaf stage); conditions: 10 g a.i./10 a; foliar spray at 4.0 to 5.0 leaf stage of Digitaria ciliaris (plant height 10 cm to 15 cm); 20 days at 25° C.
Description: (§4) Field soil was filled into a 1/4500 are pot followed by seeding with Digitaria ciliaris and Galinsoga parviflora, covering with soil and cultivating in a glass greenhouse at an average atmospheric temperature of 25° C. Wettable powders of Target Compound (I) shown in Table 1 prepared in compliance with the preparation examples were diluted with water to the prescribed amount of chemical and uniformly sprayed onto the weeds using 100 liters of sprayed water per 10 are when Digitaria ciliaris had grown to the 4.0 to 5.0 leaf stage (plant height: 10 cm to 15 cm). After treating for 20 days in a glass greenhouse at an average atmospheric temperature of 25° C., the herbicidal efficacy thereof was investigated. Evaluation of herbicidal efficacy was carried out in the same manner as the above-mentioned Test Example 1.

Galinsoga parviflora = test: as above; conditions: 10 g a.i./10 a; foliar spray at 4.0 to 5.0 leaf stage of Digitaria ciliaris (plant height 10 cm to 15 cm); 20 days at 25° C.
Description: as §4

N#Cc1cnn(-c2nn3c(c2Cl)CCCC3)c1NC(=O)c1ccccc1 [Control agent 4.192, reference compound]
herbicidal efficacy, Chenopodium album (Chenopodium album [1]; 5 g a.i./10 a): 4 (4: 40% to less than 50%)
herbicidal efficacy, Chenopodium album (Chenopodium album [1]; 10 g a.i./10 a): 5 (5: 50% to less than 60%)
herbicidal efficacy, Amaranthus retroflexus (Amaranthus retroflexus [2]; 5 g a.i./10 a): 3 (3: 30% to less than 40%)
herbicidal efficacy, Amaranthus retroflexus (Amaranthus retroflexus [2]; 10 g a.i./10 a): 4 (4: 40% to less than 50%)
herbicidal efficacy, Digitaria ciliaris (Digitaria ciliaris [3]; 5 g a.i./10 a): 1 (1: 10% to less than 20%)
herbicidal efficacy, Digitaria ciliaris (Digitaria ciliaris [3]; 10 g a.i./10 a): 2 (2: 20% to less than 30%)
herbicidal efficacy, Chenopodium album (Chenopodium album [4]; 5 g a.i./10 a): 2 (2: 20% to less than 30%)
herbicidal efficacy, Chenopodium album (Chenopodium album [4]; 10 g a.i./10 a): 3 (3: 30% to less than 40%)
herbicidal efficacy, Amaranthus retroflexus (Amaranthus retroflexus [5]; 5 g a.i./10 a): 0 (0 (exponent): 0% to less than 10% (growth inhibition rate))
herbicidal efficacy, Amaranthus retroflexus (Amaranthus retroflexus [5]; 10 g a.i./10 a): 1 (1: 10% to less than 20%)
herbicidal efficacy, Digitaria ciliaris (Digitaria ciliaris [6]; 5 g a.i./10 a): 0 (0 (exponent): 0% to less than 10% (growth inhibition rate))
herbicidal efficacy, Digitaria ciliaris (Digitaria ciliaris [6]; 10 g a.i./10 a): 2 (2: 20% to less than 30%)
herbicidal efficacy, Monochoria vaginalis (Monochoria vaginalis; 1 g a.i./10 a): 1 (1: 10% to less than 20%)
herbicidal efficacy, Monochoria vaginalis (Monochoria vaginalis; 5 g a.i./10 a): 2 (2: 20% to less than 30%)
herbicidal efficacy, Scirpus juncoides (Scirpus juncoides; 1 g a.i./10 a): 3 (3: 30% to less than 40%)
herbicidal efficacy, Scirpus juncoides (Scirpus juncoides; 5 g a.i./10 a): 4 (4: 40% to less than 50%)
herbicidal efficacy, Echinochloa crus-galli (Echinochloa crus-galli; 1 g a.i./10 a): 4 (4: 40% to less than 50%)
herbicidal efficacy, Echinochloa crus-galli (Echinochloa crus-galli; 5 g a.i./10 a): 4 (4: 40% to less than 50%)
phytotoxicity, Oryza sativa (Oryza sativa; 1 g a.i./10 a): 1 (1: 10% to less than 20%)
phytotoxicity, Oryza sativa (Oryza sativa; 5 g a.i./10 a): 1 (1: 10% to less than 20%)
herbicidal efficacy, Digitaria ciliaris (Digitaria ciliaris [7]): 0 (0 (exponent): 0% to less than 10% (growth inhibition rate))
herbicidal efficacy, Galinsoga parviflora (Galinsoga parviflora): 2 (2: 20% to less than 30%)
